Assay results from patent publication US8383637B2, “2-amino-quinazoline derivatives useful as inhibitors of β-secretase (BACE)” (Jansssen Pharmaceutica N.V., priority 2004, dated 2013).

Molecular target: T1, β-secretase(BACE) (Homo sapiens, UniProt P56817)
T1 construct: purchased Panvera
Experiment: BACE FS1% Inhibition Assay
Type: biochemical
Settings: FS1 substrate
Description: BACE FS1% Inhibition Assay The following reagents were used in this assay: sodium acetate, PEG8000 (Sigma), DMSO, HEPES, FS1 substrate [[…]] […] The FS1-substrate stock solution was prepared in DMSO as a 10 mg/mL solution. The FS1-substrate working solution was prepared by diluting the 10 mg/mL stock solution with substrate assay buffer to a final concentration of 300 μg/mL. The β-secretase (BACE) working solution was prepared by diluting a 0.83 mg/mL BACE stock solution with enzyme assay buffer to a final concentration of 4 μg/mL. Test compounds were dissolved in DMSO to 10 mM. […] The screening procedure for this assay was as follows: 15 μL of BACE working solution was pipetted into each well of a 96-well plate. To each well was then pipetted 2 μL of test compound at the selected concentration. Test compound and BACE were then mixed with a pipettor and incubated for 20 min at room temperature. To each well was then added 10 μL of the FS1 substrate working solution. The plates were then incubated for 1 hour at room temperature. […] The procedure for the blank was as follows. 15 μL of assay buffer was pipetted into each well to be used as a blank control. To each well was then added 2 μL of vehicle and 10 μL of FS1-substrate working solution. The plates were then incubated for 1 hour at room temperature. […] The procedure for the positive control was as follows: 15 μL of BACE working solution was pipetted into each well to be used as a positive control. To each well was then pipetted 2 μL of vehicle. Vehicle and BACE were then mixed with a pipettor and incubated for 20 min at room temperature. To each well was then added 10 μL of the FS1 substrate working solution. The plates were then incubated for 1 hour at room temperature. […] For test compounds, % inhibition was determined at each concentration as follows: [formula]

T1 sequence (P56817 46-501): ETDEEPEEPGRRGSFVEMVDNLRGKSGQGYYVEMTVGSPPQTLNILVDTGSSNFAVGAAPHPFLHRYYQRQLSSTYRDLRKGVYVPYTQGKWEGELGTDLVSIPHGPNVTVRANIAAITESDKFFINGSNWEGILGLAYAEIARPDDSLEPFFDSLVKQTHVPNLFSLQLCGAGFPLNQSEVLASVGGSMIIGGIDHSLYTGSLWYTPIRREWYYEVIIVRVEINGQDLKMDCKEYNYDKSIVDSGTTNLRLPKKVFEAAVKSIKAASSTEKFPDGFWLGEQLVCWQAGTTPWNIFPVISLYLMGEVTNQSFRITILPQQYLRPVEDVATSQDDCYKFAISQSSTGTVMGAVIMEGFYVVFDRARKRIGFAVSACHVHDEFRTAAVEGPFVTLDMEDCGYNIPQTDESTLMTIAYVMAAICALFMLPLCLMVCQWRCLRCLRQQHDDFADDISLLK

Compound: NC1=Nc2ccc(Oc3ccccc3)cc2CN1CCCCNC(=O)C1CCCC1 [Compound 116]
- % Inhibition (FS) 3 μM (3 μM test compound): 39%
- % Inhibition (FS) 10 μM (10 μM test compound): 81%

Compound: Cc1ccccc1-c1ccc2c(c1)CN(CCNC(=O)C(C)(C)C)C(N)=N2 [Compound 660]
- % Inhibition (FS) 0.3 μM (0.3 μM test compound): 63%
- % Inhibition (FS) 1 μM (1 μM test compound): 86%
- % Inhibition (FS) 3 μM (3 μM test compound): 105%

Compound: CCCCC(CC)C(=O)NCCN1Cc2cc(-c3cnc4ccccc4c3)ccc2N=C1N (centres unmarked) [Compound 676]
- % Inhibition (FS) (0.3 μM test compound): 33%
- % Inhibition (FS) (1 μM test compound): <30%
- % Inhibition (FS) (3 μM test compound): 44%

Compound: CCCC(=O)NCCN1Cc2cc(Br)ccc2N=C1N [Compound 808]
- inhibition at 0.3 µM (0.3 μM test compound, read-out: % Inhibition (FS)): < 30%
- inhibition at 1 µM (1 μM test compound, read-out: % Inhibition (FS)): < 30%
- inhibition at 3 µM (3 μM test compound, read-out: % Inhibition (FS)): < 30%

Compound: CN(CCCCC(=O)O)C(=O)CC[C@@H](C1CCCCC1)N1Cc2cc(Oc3ccccc3)ccc2N=C1N [Compound 752]
- % Inhibition (FS) (0.3 μM test compound): 45%
- % Inhibition (FS) (1 μM test compound): 81%
- % Inhibition (FS) (3 μM test compound): 109%

Compound: NC1=Nc2ccc(-c3ccccc3Cl)cc2CN1CCNC(=O)CCC(F)(F)F [Compound 682]
- % Inhibition (FS) (0.3 μM test compound): 39%
- % Inhibition (FS) (1 μM test compound): 77%
- % Inhibition (FS) (3 μM test compound): 97%

Compound: CC(C)c1ccccc1Oc1ccc2c(c1)CN(C(CC(=O)NC1CCCCC1)C1CCCCC1)C(N)=N2 (centres unmarked) [Compound 313]
- % Inhibition (FS) 0.3 μM (0.3 μM test compound): <30%
- % Inhibition (FS) 1 μM (1 μM test compound): <30%
- % Inhibition (FS) 3 μM (3 μM test compound): 31%

Compound: NC(=O)c1ccccc1-c1ccc2c(c1)CN(CCNC(=O)C1CCCCC1)C(N)=N2 [Compound 543]
- % Inhibition (FS) 0.3 μM (0.3 μM test compound): <30%
- % Inhibition (FS) 1 μM (1 μM test compound): <30%
- % Inhibition (FS) 3 μM (3 μM test compound): <30%

Compound: COC1CCCC(C(=O)NCCN2Cc3cc(C4=CCCC4)ccc3N=C2N)C1 (centres unmarked) [Compound 706]
- % Inhibition (FS) (0.3 μM test compound): <30%
- % Inhibition (FS) (1 μM test compound): <30%
- % Inhibition (FS) (3 μM test compound): <30%

Compound: CCCC(=O)NCCN1Cc2cc(-c3cncnc3)ccc2N=C1N [Compound 569]
- % Inhibition (FS) 0.3 μM (0.3 μM test compound): <30%
- % Inhibition (FS) 1 μM (1 μM test compound): <30%
- % Inhibition (FS) 3 μM (3 μM test compound): <30%

Compound: NC1=Nc2ccc(-c3cncnc3)cc2CN1CCNC(=O)C1CCCCC1 [Compound 575]
- % Inhibition (FS) 0.3 μM (0.3 μM test compound): <30%
- % Inhibition (FS) 1 μM (1 μM test compound): <30%
- % Inhibition (FS) 3 μM (3 μM test compound): <30%

Compound: CCOC(=O)C1CCC(N(C)C(=O)CCC(C2CCCCC2)N2Cc3cc(Oc4ccccc4)ccc3N=C2N)CC1 (centres unmarked) [Compound 737]
- % Inhibition (FS) (0.3 μM test compound, 0.3 µM): 22%
- % Inhibition (FS) (1 μM test compound, 1 µM): 34%
- % Inhibition (FS) (3 μM test compound, 3 µM): 97%

Compound: CSc1ccc(Sc2ccc3c(c2)CN(Cc2cccc(C(=O)N(C)C4CCCCC4)c2)C(N)=N3)cc1 [Compound 413]
- % Inhibition (FS) 0.3 μM (0.3 μM test compound): <30%
- % Inhibition (FS) 1 μM (1 μM test compound): <30%
- % Inhibition (FS) 3 μM (3 μM test compound): 53%

Compound: CCCC=Cc1ccc2c(c1)CN(CCNC(=O)C(C)(C)C)C(N)=N2 [Compound 574]
- % Inhibition (FS) 0.3 μM (0.3 μM test compound): <30%
- % Inhibition (FS) 1 μM (1 μM test compound): <30%
- % Inhibition (FS) 3 μM (3 μM test compound): <30%

Compound: NC1=Nc2ccc(-c3ccccc3F)cc2CN1CCNC(=O)C1CCOCC1 [Compound 687]
- % Inhibition (FS) (0.3 μM test compound): <30%
- % Inhibition (FS) (1 μM test compound): 50%
- % Inhibition (FS) (3 μM test compound): 87%

Compound: CC(C)(C)NS(=O)(=O)c1ccccc1-c1ccc2c(c1)CN(CCNC(=O)C1CCCCC1)C(N)=N2 [Compound 542]
- % Inhibition (FS) 0.3 μM (0.3 μM test compound): <30%
- % Inhibition (FS) 1 μM (1 μM test compound): <30%
- % Inhibition (FS) 3 μM (3 μM test compound): 73%

Compound: CN(C(=O)CCC(C1CCCCC1)N1Cc2cc(Oc3ccccc3)ccc2N=C1N)C(COCc1ccccc1)C(=O)O (centres unmarked) [Compound 781]
- % Inhibition (FS) (0.3 μM test compound): 106%
- % Inhibition (FS) (1 μM test compound): 109%
- % Inhibition (FS) (3 μM test compound): 121%

Compound: NC1=Nc2ccc(Oc3ccccc3)cc2CN1CCNC(=O)C(c1ccccc1)c1ccccc1 [Compound 207]
- % Inhibition (FS) 0.3 μM (0.3 μM test compound): 48%
- % Inhibition (FS) 1 μM (1 μM test compound): 90%
- % Inhibition (FS) 3 μM (3 μM test compound): 108%

Compound: CN(Cc1cccc(CC(=O)O)c1)C(=O)CCC(C1CCCCC1)N1Cc2cc(Oc3ccccc3)ccc2N=C1N (centres unmarked) [Compound 778]
- % Inhibition (FS) (0.3 μM test compound): <30%
- % Inhibition (FS) (1 μM test compound): 77%
- % Inhibition (FS) (3 μM test compound): 113%

Compound: Cc1cc(C(=O)NCCN2Cc3cc(-c4ccccc4)ccc3N=C2N)c(C)o1 [Compound 586]
- % Inhibition (FS) 0.3 μM (0.3 μM test compound): <30%
- % Inhibition (FS) 1 μM (1 μM test compound): <30%
- % Inhibition (FS) 3 μM (3 μM test compound): 59%

Compound: CN(C(=O)c1cccc(CN2Cc3cc(C=Cc4ccccc4)ccc3N=C2N)c1)C1CCCCC1 [Compound 266]
- % Inhibition (FS) 0.3 μM (0.3 μM test compound): <30%
- % Inhibition (FS) 1 μM (1 μM test compound): 34%
- % Inhibition (FS) 3 μM (3 μM test compound): <30%

Compound: CC(C)C(CNC(=O)C12CC3CC(CC(C3)C1)C2)N1Cc2cc(Oc3ccccc3)ccc2N=C1N (centres unmarked) [Compound 562]
- % Inhibition (FS) 0.3 μM (0.3 μM test compound): 106%
- % Inhibition (FS) 1 μM (1 μM test compound): 118%
- % Inhibition (FS) 3 μM (3 μM test compound): 128%

Compound: COc1ccc(F)cc1-c1ccc2c(c1)CN(CCNC(=O)C1CCCCC1)C(N)=N2 [Compound 631]
- % Inhibition (FS) 0.3 μM (0.3 μM test compound): <30%
- % Inhibition (FS) 1 μM (1 μM test compound): <30%
- % Inhibition (FS) 3 μM (3 μM test compound): 48%

Compound: CC(C)N(C(=O)CC(C1CCCCC1)N1Cc2cc(Oc3ccccc3)ccc2N=C1N)C1CCCCC1 (centres unmarked) [Compound 200]
- % Inhibition (FS) 0.3 μM (0.3 μM test compound): <30%
- % Inhibition (FS) 1 μM (1 μM test compound): <30%
- % Inhibition (FS) 3 μM (3 μM test compound): <30%

Compound: C=CCc1cccc(OC)c1Oc1ccc2c(c1)CN(Cc1cccc(C(=O)N(C)C3CCCCC3)c1)C(N)=N2 [Compound 481]
- % Inhibition (FS) 0.3 μM (0.3 μM test compound): <30%
- % Inhibition (FS) 1 μM (1 μM test compound): <30%
- % Inhibition (FS) 3 μM (3 μM test compound): 32%

Compound: Cc1ccccc1-c1ccc2c(c1)CN(CCNC(=O)CCC(C)C)C(N)=N2 [Compound 661]
- % Inhibition (FS) (0.3 μM test compound): 68%
- % Inhibition (FS) (1 μM test compound): 98%
- % Inhibition (FS) (3 μM test compound): 106%

Compound: COc1ccccc1-c1ccc2c(c1)CN([C@@H](CCC(=O)N(C)Cc1csc(-c3ccccc3)n1)C1CCCCC1)C(N)=N2 [Compound 716]
- % Inhibition (FS) (0.3 μM test compound): <30%
- % Inhibition (FS) (1 μM test compound): <30%
- % Inhibition (FS) (3 μM test compound): 72%

Compound: COc1ccc(Sc2ccc3c(c2)CN(Cc2cccc(C(=O)N(C)C4CCCCC4)c2)C(N)=N3)cc1 [Compound 410]
- % Inhibition (FS) 0.3 μM (0.3 μM test compound): <30%
- % Inhibition (FS) 1 μM (1 μM test compound): 39%
- % Inhibition (FS) 3 μM (3 μM test compound): 50%

Compound: CN(C(=O)c1cccc(CN2Cc3cc(Sc4cccc5ccccc45)ccc3N=C2N)c1)C1CCCCC1 [Compound 414]
- % Inhibition (FS) 0.3 μM (0.3 μM test compound): <30%
- % Inhibition (FS) 1 μM (1 μM test compound): <30%
- % Inhibition (FS) 3 μM (3 μM test compound): 27%

Compound: COc1ccc(Nc2ccc3c(c2)CN(Cc2cccc(C(=O)N(C)C4CCCCC4)c2)C(N)=N3)cc1 [Compound 434]
- % Inhibition (FS) 0.3 μM (0.3 μM test compound): <30%
- % Inhibition (FS) 1 μM (1 μM test compound): <30%
- % Inhibition (FS) 3 μM (3 μM test compound): <30%

Compound: NC1=Nc2ccc(-c3ccccc3Cl)cc2CN1CCNC(=O)C1CCC1 [Compound 649]
- % Inhibition (FS) 0.3 μM (0.3 μM test compound): 34%
- % Inhibition (FS) 1 μM (1 μM test compound): 65%
- % Inhibition (FS) 3 μM (3 μM test compound): 95%

Compound: NC1=Nc2ccc(-c3ccccc3Cl)cc2CN1CCNC(=O)C1CCOCC1 [Compound 689]
- % Inhibition (FS) (0.3 μM test compound): 33%
- % Inhibition (FS) (1 μM test compound): 82%
- % Inhibition (FS) (3 μM test compound): 102%

Compound: COC(=O)C(COCc1ccccc1)N(C)C(=O)CCC(C1CCCCC1)N1Cc2cc(Oc3ccccc3)ccc2N=C1N (centres unmarked) [Compound 780]
- % Inhibition (FS) (0.3 μM test compound): 69%
- % Inhibition (FS) (1 μM test compound): 97%
- % Inhibition (FS) (3 μM test compound): 109%

Compound: CC(C)(C)C(=O)NCCN1Cc2cc(-c3ccccc3F)ccc2N=C1N [Compound 646]
- % Inhibition (FS) 0.3 μM (0.3 μM test compound): 52%
- % Inhibition (FS) 1 μM (1 μM test compound): 72%
- % Inhibition (FS) 3 μM (3 μM test compound): 97%

Compound: NC1=Nc2ccc(Oc3ccccc3)cc2CN1[C@H](CNC(=O)C1CCCCC1)C1CCCCC1 [Compound 484]
- % Inhibition (FS) 0.3 μM (0.3 μM test compound): <30%
- % Inhibition (FS) 1 μM (1 μM test compound): <30%
- % Inhibition (FS) 3 μM (3 μM test compound): 62%
